This is an account of results in patent US20210255184A1, “Biosensor Device and Methods” (The New Zealand Institute for Plant and Food Research …, priority 2018, published 2021).

The term EC50 denotes the midpoint of the concentration-response curve. Low values mean an effect from little substance, high ones a need for much substance.

The target in this test is T1, Or22a/Orco (Drosophila melanogaster, UniProt P81909).
T1 construct: his-tag; made in house; host or cells: baculovirus-infected Sf9 cells
T1 sequence (P81909 1-397): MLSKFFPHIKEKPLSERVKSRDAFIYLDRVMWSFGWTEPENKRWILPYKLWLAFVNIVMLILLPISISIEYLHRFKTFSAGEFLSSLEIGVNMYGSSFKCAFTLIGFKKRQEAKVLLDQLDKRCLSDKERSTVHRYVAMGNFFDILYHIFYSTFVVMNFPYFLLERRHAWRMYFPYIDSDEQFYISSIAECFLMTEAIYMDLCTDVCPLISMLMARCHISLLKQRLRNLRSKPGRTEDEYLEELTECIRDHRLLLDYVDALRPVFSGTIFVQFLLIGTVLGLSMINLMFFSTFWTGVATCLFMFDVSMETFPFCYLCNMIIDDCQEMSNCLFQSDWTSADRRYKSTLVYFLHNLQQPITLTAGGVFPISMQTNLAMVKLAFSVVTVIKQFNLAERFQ
T1 sequence (Q9VNB5 1-486 partner): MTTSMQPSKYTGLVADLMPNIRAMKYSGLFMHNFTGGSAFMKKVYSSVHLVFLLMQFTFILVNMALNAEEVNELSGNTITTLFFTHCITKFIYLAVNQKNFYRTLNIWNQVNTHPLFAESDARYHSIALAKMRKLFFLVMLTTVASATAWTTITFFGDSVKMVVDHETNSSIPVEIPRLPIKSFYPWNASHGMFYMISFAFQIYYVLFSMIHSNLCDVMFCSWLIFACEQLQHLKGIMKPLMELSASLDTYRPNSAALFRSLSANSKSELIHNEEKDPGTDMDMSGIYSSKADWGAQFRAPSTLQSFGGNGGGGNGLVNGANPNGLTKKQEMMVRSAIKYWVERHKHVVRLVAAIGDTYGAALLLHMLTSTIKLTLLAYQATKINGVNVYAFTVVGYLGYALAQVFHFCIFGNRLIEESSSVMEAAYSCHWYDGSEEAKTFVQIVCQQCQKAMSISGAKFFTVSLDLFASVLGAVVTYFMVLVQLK
Description: GFET sensor, Or22a/Orco liposomes. In kind it is biochemical. Conditions: Table 4, GFET. An excerpt:
The GFETs used in this study were fabricated from a predeposited graphene film on 300 nm SiO2 coated Si substrate from ACS Suppliers, USA. The FETs consist of a channel with dimensions of 100 μm width and […]. The key steps involved in fabricating the GFET on a Si/SiO2 substrate is schematically illustrated in FIG. 12. The source and drain electrodes were defined by photolithography and formed by successive deposition of Cr and Au. Both the drain and source electrodes were then encapsulated using AZ1518 photoresist and a channel with dimensions of 100 μm width and 10 μm length was left open to the environment for gating and functionalisation.
The OR liposomes were functionalised onto the graphene surface via a non-covalent route using PBASE as the molecular linker as shown in FIG. 13. The OR liposomes were diluted at 1:10 ratio with 1×PBS (pH7.4). The cleaned GFETs were immersed in 1 mM PBASE solution in methanol for 1 hour. […]
Electrical sensor measurements of OR liposome functionalised GFETs were carried out using top liquid gate morphology as shown in the schematic in FIG. 15 (a). […] The transfer characteristics of the different graphene FETs (FIG. 15 (b) to (g)) were measured at Vds=1 mV while the liquid gate voltage Vlg was swept from −0.5 V to 1 V with an interval of 20 mV. […]

Take `CCCCCC(=O)OC` [methyl hexanoate]: the “Detection Range” value was 10^−13-10^−8 M and the EC50 is 3.91 pM.
